These results are taken from patent US20080051429A1, “USE OF 4-AMINO-PIPERIDINES FOR TREATING SLEEP DISORDERS” (priority 2006, published 2008).

Counter-ions that a name gives are not always drawn. Like-named read-outs stand apart in the source and are kept apart here.

In the test the target is T1, 5-HT2A receptor (Homo sapiens, UniProt P28223).
T1 construct: expressed in transfected cells; host or cells: NIH3T3 cells, pSI expression vector
Kind of test: R-SAT functional receptor assay. In kind it is cell-based. Conditions: for Emax: 120 h. How it is done:
The functional receptor assay, Receptor Selection and Amplification Technology (R-SAT), was used (with minor modifications from that previously described U.S. Pat. No. 5,707,798) to screen compounds for efficacy at the 5-HT2A receptor. Briefly, NIH3T3 cells were grown in 96 well tissue culture plates to 70-80% confluence. Cells were transfected for 12-16 hours with plasmid DNAs using superfect (Qiagen Inc.) as per manufacture's protocols. R-SAT's were generally performed with 50 ng/well of receptor and 20 ng/well of Beta-galactosidase plasmid DNA. All receptor and G-protein constructs used were in the pSI mammalian expression vector (Promega Inc) as described in U.S. Pat. No. 5,707,798. The 5HT2A receptor gene was amplified by nested PCR from brain cDNA using the oligodeoxynucleotides based on the published sequence (see Saltzman et. al. Biochem. Biophys. Res. Comm. 181:1469-78 (1991)). Large-scale transfections, cells were transfected for 12-16 hours, then trypsinized and frozen in DMSO. Frozen cells were later thawed, plated at 10,000-40,000 cells per well of a 96 well plate that contained drug. With both methods, cells were then grown in a humidified atmosphere with 5% ambient CO2 for five days. Media was then removed from the plates and marker gene activity was measured by the addition of the beta-galactosidase substrate ONPG (in PBS with 5% NP-40). The resulting colorimetric reaction was measured in a spectrophotometric plate reader (Titertek Inc.)at […]. All data were analyzed using the computer program XLFit (IDBSm). Efficacy is the percent maximal repression compared to repression by a control compound (ritanserin in the case of 5HT2A). pIC50 is the negative of the log(IC50), where IC50 is the calculated concentration in Molar that produces 50% maximal repression.
Briefly, the 5-HT2A receptor, and the alpha subunit of the guanine nucleotide binding protein Gq were transiently transfected into NIH3T3 cells and assayed using the functional receptor assay, Receptor Selection and Amplification Technology (R-SAT) essentially as disclosed in U.S. Pat. No. 5,707,798. Each compound was screened at seven serially diluted concentrations in triplicate. Data were analyzed using least squares fit analysis with GraphPad Prism (San Diego, Calif.), and are reported normalized to percent response.
R-SAT assays (as described in Example 42) were carried out with cells transfected with receptors (listed below) to determine the receptor selectivity profile for compound 26HCH16D. 5HT2A inverse agonist data (IC50 nM; % efficacy) were derived from detailed dose response curves (7 points in triplicate).
The functional receptor assay, Receptor Selection and Amplification Technology (R-SAT), was used (with minor modifications from that previously described U.S. Pat. No. 5,707,798) to screen compounds for efficacy at the 5-HT2A receptor. The RSAT assay was conducted as described herein.
The functional receptor assay, Receptor Selection and Amplification Technology (R-SAT), was used (with minor modifications from that previously described U.S. Pat. No. 5,707,798, which is incorporated herein by reference in its entirety) to screen compounds for efficacy at the 5-HT2A receptor. The RSAT assay was conducted as described herein.

The mark [1] stands for this setting: compared to ritanserin, read-out: 5HT2A % inhibition.
The mark [2] stands for this setting: pIC50 (average), inverse agonist.
[3] abbreviates: percent maximal repression compared to ritanserin.
The mark [4] stands for this setting: read-out: Percent Efficacy, compared to ritanserin.
Where [5] appears, read: Table 3, read-out: pIC50 (converted).
Where [6] appears, read: inverse agonist, read-out: pIC50 (average) (converted).
Setting [7] is: Table 6, read-out: 5HT2A pIC50 (converted).

T1 sequence (P28223 whole entry): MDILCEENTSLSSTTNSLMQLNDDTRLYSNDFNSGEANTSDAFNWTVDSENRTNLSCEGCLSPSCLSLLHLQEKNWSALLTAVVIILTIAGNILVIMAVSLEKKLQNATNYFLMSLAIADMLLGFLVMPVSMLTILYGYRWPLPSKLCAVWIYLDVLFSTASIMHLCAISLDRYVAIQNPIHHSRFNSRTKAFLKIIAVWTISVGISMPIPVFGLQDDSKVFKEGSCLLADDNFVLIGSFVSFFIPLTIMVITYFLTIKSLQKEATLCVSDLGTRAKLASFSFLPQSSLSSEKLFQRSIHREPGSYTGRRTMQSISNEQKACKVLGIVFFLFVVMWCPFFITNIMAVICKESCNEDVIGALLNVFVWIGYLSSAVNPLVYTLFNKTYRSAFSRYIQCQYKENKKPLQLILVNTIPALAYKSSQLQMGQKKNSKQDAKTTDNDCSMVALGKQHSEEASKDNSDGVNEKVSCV

Consider `CC(C)COc1ccc(CN2C(=O)OC3(CCN(C)CC3)[C@@H]2Cc2ccc(F)cc2)cc1` (single isomer, unassigned) [Example 78NLS59, 4-(4-fluorobenzyl)-3-(4-isobutoxybenzyl)-8-methyl-1-oxa-3,8-diaza-spiro[4.5]decan-2-one, hydrochloride], for which the Emax (read-out: 5HT2A % inhibition, compared to ritanserin) turned out to be 98%. Besides, under “in words”, the “enantiomer activity at the 5-HT2A receptor” value is given as “eutomer”.
Consider `CC(C)COc1ccc(CN2C(=O)OC3(CCN(C)CC3)C2Cc2ccc(F)cc2)cc1` (single isomer, unassigned) [Example 78NLS62, 4-(4-fluorobenzyl)-3-(4-isobutoxybenzyl)-8-methyl-1-oxa-3,8-diaza-spiro[4.5]decan-2-one, hydrochloride], for which the Emax under setting [1] is 89%.
Take `COc1ccc(CC(=O)N(Cc2ccc(C)cc2)C2CCN(CC3CCCCC3)CC2)cc1` [Example 6HCH79-6, N-(1-(Cyclohexylmethyl)piperidin-4-yl)-N-((4-methylphenyl)methyl)-4-methoxy phenylacetamide]: the “Percent Efficacy” value was determined as 83%.
Consider `COc1ccc(CC(=O)N(Cc2ccc(C)cc2)C2CCN(Cc3ccccc3)CC2)cc1` [Example 26HCH17, N-((4-Methylphenyl)methyl)-N-(1-(phenylmethyl)piperidin-4-yl)-4-methoxyphenylacetamide hydrochloride], for which, under “read-out: Percent Efficacy”, the Emax is 94%. This molecule also showed an IC50 (pIC50, Table 3) of 5.01 nM.
Under setting [2], `COc1ccc(CC(=O)N(Cc2ccc(C)cc2)C2CCN(Cc3ccccc3)C2)cc1` (stereo not drawn) [Example 26HCH52, N-((4-Methylphenyl)methyl)-N-(1-(phenylmethyl)pyrrolidin-3-yl)-4-methoxyphenylacetamide] showed an IC50 of 49 nM. For the same molecule, under setting [3], the “Efficacy (average)” value came to 98.
For `Cc1ccc(CN(C(=O)NCc2ccccc2)C2CCNCC2)cc1` [Example 26HCH65, N-((4-Methylphenyl)methyl)-N-(piperidin-4-yl)-N′-phenylmethylcarbamide], the Emax under setting [4] came to 103%. The IC50 under setting [5] is 6.31 nM.
With `Cc1ccc(CN(C(=O)NCc2ccccc2)C2CCN(Cc3ccccc3Br)CC2)cc1` [Example 26HCH66-03, N-(1-((2-Bromophenyl)methyl)piperidin-4-yl)-N-((4-methylphenyl)methyl)-N′-phenylmethylcarbamide], the IC50 under setting [2] was 38 nM. For the same molecule, the “Efficacy (average)” value under setting [3] is listed as 76.
As for `CCc1ccc(CN2CCC(N(Cc3ccc(C)cc3)C(=O)NCc3ccccc3)CC2)s1` [Example 26HCH66-05, N-(1-((5-Ethylthien-2-yl)methyl)piperidin-4-yl)-N-((4-methylphenyl)methyl)-N′-phenylmethylcarbamide], the Emax (read-out: Percent Efficacy) was found to be 126%. Moreover, the IC50 was 28.2 nM under setting [2] and 7.94 nM (pIC50, Table 3). For the same molecule, the “Efficacy (average)” value under setting [3] is listed as 109.
As to `COc1ccc(CC(=O)N(Cc2ccc(C)cc2)C2CCNCC2)cc1` [Example 26HCH71B, N-((4-Methylphenyl)methyl)-N-(piperidin-4-yl)-4-methoxyphenylacetamide], the Emax under setting [4] is 124%. For the same molecule, under setting [5], the IC50 is 12.6 nM.
Turning to `COc1ccc(CC(=O)N(Cc2ccc(C)cc2)C2CCN(CCC(C)(C)C)CC2)cc1` [Example 26HCH79-5, N-(1-(3,3-Dimethylbutyl)piperidin-4-yl)-N-((4-methylphenyl)methyl)-4-methoxyphenylacetamide], the Emax under setting [4] was 94%. Moreover, the IC50 under setting [5] was 6.31 nM.
`COc1ccc(CC(=O)N(Cc2ccc(C)cc2)C2CCN(Cc3ccccc3O)CC2)cc1` [Example 26HCH79-10, N-(1-((2-Hydroxyphenyl)methyl)piperidin-4-yl)-N-((4-methylphenyl)methyl)-4-methoxyphenylacetamide]: under “read-out: Percent Efficacy”, the Emax was 102%. Moreover, the IC50 (pIC50, Table 3) is 15.8 nM.
On to `COc1ccc(CC(=O)N(Cc2ccc(F)cc2)C2CCNCC2)cc1` [Example 26HCH80-7, N-((4-Fluorophenyl)methyl)-N-(piperidin-4-yl)-4-methoxyphenylacetamide], for which the “Efficacy (average)” value is listed as 87. The IC50 under setting [6] is 20 nM.
Consider `COc1ccc(CC(=O)N(Cc2cccc(Br)c2)C2CCNCC2)cc1` [Example 26HCH80-10, N-((3-Bromophenyl)methyl)-N-(piperidin-4-yl)-4-methoxyphenylacetamide], for which the “Efficacy (average)” value was found to be 91. In addition, under setting [6], the IC50 is 61.7 nM.
For the molecule `CC(C)COc1ccc(CN2C(=O)OC3(CCN(CC4CC4)CC3)C2Cc2ccc(F)cc2)cc1` (stereo not drawn) [Example 38-PH16-HCl, 8-Cyclopropylmethyl-4-(4-fluorobenzyl)-3-(4-isobutoxybenzyl)-1-oxa-3,8-diaza-spiro[4.5]decan-2-one, hydrochloride], the Emax under setting [1] came out at 95%. Further, the IC50 under setting [7] was 7.94 nM.
The corresponding values for `CC(C)COc1ccc(CN2C(=O)OC3(CCN(CCN4CCNC4=O)CC3)C2Cc2ccc(F)cc2)cc1` (stereo not drawn) [Example 38-PH17-HCl, 4-(4-Fluorobenzyl)-3-(4-isobutoxybenzyl)-8-[2-(2-oxo-imidazolidin-1-yl)-ethyl]-1-oxa-3,8-diaza-spiro[4.5]decan-2-one, hydrochloride] are 84% and 1.58 nM.
The corresponding values for `CCN1CCC2(CC1)OC(=O)N(Cc1ccc(OCC(C)C)cc1)C2Cc1ccc(F)cc1` (stereo not drawn) [Example 38-PH20, 4-(4-Fluorobenzyl)-3-(4-isobutoxybenzyl)-8-ethyl-1-oxa-3,8-diaza-spiro[4.5]decan-2-one, hydrochloride] are 100% and 0.501 nM.
For the molecule `COc1ccc(CC(=O)N(Cc2ccc(C)cc2)C2CCN(CC3CCCCC3)CC2)cc1` [Example 42ELH45, 2-(4-Methoxyphenyl)-N-(4-methylbenzyl)-N-(1-cyclohexylmethylpiperidin-4-yl)acetamide], the “Percent Efficacy” value was 108%.
As to `COc1ccc(CC(=O)N(Cc2ccc(C)cc2)C2CCN(C3CCCC3)CC2)cc1` [Example 42ELH75, 2-(4-Methoxyphenyl)-N-(4-methylbenzyl)-N-(1-cyclopentylpiperidin-4-yl)acetamide], the Emax under setting [4] was found to be 109%. Also, under setting [5], the IC50 was 5.01 nM.
For `COc1ccc(CC(=O)N(Cc2ccc(C)cc2)C2CCN(C(C)C)CC2)cc1` [Example 42ELH79, 2-(4-Methoxyphenyl)-N-(4-methylbenzyl)-N-(1-isopropylpiperidin-4-yl)acetamide] the same measures were 110% and 3.16 nM.
The corresponding values for `CCN1CCC(N(Cc2ccc(C)cc2)C(=O)Cc2ccc(OC)cc2)CC1` [Example 42ELH80, 2-(4-Methoxyphenyl)-N-(4-methylbenzyl)-N-(1-ethylpiperidin-4-yl)acetamide] are 122% and 3.16 nM.
On to `CCN1CCC(N(Cc2ccc(Cl)cc2)C(=O)Cc2ccc(OC)cc2)CC1` [Example 42ELH85, 2-(4-Methoxyphenyl)-N-(4-chlorbenzyl)-N-(1-ethylpiperidin-4-yl)acetamide], for which the “Percent Efficacy” value (compared to ritanserin) was found to be 118%.
Still for that read-out and setting: then `COc1ccc(CC(=O)N(Cc2ccc(Cl)cc2)C2CCN(C3CCCC3)CC2)cc1` [Example 42ELH91, 2-(4-Methoxyphenyl)-N-(4-chlorbenzyl)-N-(1-cyclopentylpiperidin-4-yl)acetamide], with 108%.
In the case of `Cc1ccc(CN(C(=O)Cc2ccc(Cl)cc2)C2CCN(C(C)C)CC2)cc1` [Example 47AKU-7, 2-(4-Chlorophenyl)-N-(4-methylbenzyl)-N-(1-isopropylpiperidin-4-yl)-acetamide], the Emax under setting [4] was 120%. Besides, under setting [5], the IC50 is 7.94 nM.
For `Cc1ccc(CN(C(=O)Cc2ccc(Cl)cc2)C2CCN(C)CC2)cc1` [Example 47AKU-8, 2-(4-Chlorophenyl)-N-(4-methylbenzyl)-N-(1-methylpiperidin-4-yl)-acetamide] the same measures were 113% and 7.94 nM.
